The test system of series [1] is Mus musculus. The series can be described thus: Anticonvulsant activity in albino CF1 mouse model of metrazol-induced seizures assessed as time to twitch at 196 mg/kg, ip administered 0.25 hrs prior to MTZ challenge (reference value: 25.9 +/- 1.3 s). Format: functional.
The subject of series [2] is Mus musculus. As to the kind of experiment: Anticonvulsant activity in albino CF1 mouse assessed as metrazol dose causing first clonus at 196 mg/kg, ip administered 0.25 hrs prior to MTZ challenge (reference value: 30.9 +/- 1.6 mg/kg). Type of series: functional.
In series [3] the test system is Mus musculus. The series can be described thus: Anticonvulsant activity in albino CF1 mouse assessed as metrazol dose causing first clonus at 54 mg/kg, ip administered 0.25 hrs prior to MTZ challenge (reference value: 30.9 +/- 1.6 mg/kg). Type of series: functional.
Series [4] deals with Mus musculus. The series can be described thus: Anticonvulsant activity in albino CF1 mouse model of metrazol-induced seizures assessed as metrazol dose causing first twitch at 54 mg/kg, ip administered 0.25 hrs prior to MTZ challenge (reference value: 27.6 +/- 1.3 mg/kg). Format: functional.
Series [5] concerns Mus musculus. As to the kind of experiment: Anticonvulsant activity in albino CF1 mouse assessed as time to clonus at 54 mg/kg, ip administered 0.25 hrs prior to MTZ challenge (reference value: 29 +/- 1.6 s). Type of series: functional.
The nature of series [6]: Toxicity in albino CF1 mouse assessed as body weight at 196 mg/kg, ip measured at 0.25 hrs (reference value: 26.5 +/- 0.3 g). Format: organism-based. Particulars: in vivo.
A short description of series [7]: Toxicity in albino CF1 mouse assessed as body weight at 54 mg/kg, ip measured at 0.25 hrs (reference value: 26.5 +/- 0.3 g). Format: organism-based. To be noted: in vivo.
Series [8] concerns Mus musculus. The series can be described thus: Anticonvulsant activity in ip dosed 60-Hz corneal stimulation-induced full kindling albino CF1 mouse model of epilepsy assessed as reduction in seizure score treated 0.25 hrs prior to 60-Hz corneal stimulation. Format: functional.
Series [9] has as its system Mus musculus. As to the kind of experiment: Anticonvulsant activity in albino CF1 mouse model of metrazol-induced seizures assessed as metrazol dose causing first twitch at 196 mg/kg, ip administered 0.25 hrs prior to MTZ challenge (reference value: 27.6 +/- 1.3 mg/kg). Type of series: functional.
Series [10] relates to Brain. As to the kind of experiment: In vitro anticonvulsant activity in kainic acid-induced albino Sprague Dawley rat brain assessed as blockade of ACSF-stimulated spontaneous electrographic seizure-like activity in medial entorhinal cortex hippocampal brain slices by measuring burst duration at 100 uM measured after 20 mins relative to control. Format: functional.
Series [11] has as its system Mus musculus. As to the kind of experiment: Neuroprotective activity against controlled cortical impact-induced C57Bl/6 acute mouse model of traumatic brain injury assessed as lesion volume at 54 mg/kg, ip administered twice daily for 3 days starting from 0.5 hrs post controlled cortical impact challenge measured post-last dose by naurotrace 435/455 staining-based fluorescent microscopy (reference value: 11.9 +/- 0.7 mm3). Format: functional.

Series [12] has as its system Mus musculus. As to the kind of experiment: Anticonvulsant activity in 60-Hz corneal stimulation-induced full kindling albino CF1 mouse model of epilepsy assessed as reduction in seizure score at 94 mg/kg, ip administered 0.25 hrs prior to 60-Hz corneal stimulation. Type of series: functional, organism-based.
Series [13] deals with Brain. The series can be described thus: In vitro anticonvulsant activity in kainic acid-induced albino Sprague Dawley rat brain assessed as blockade of ACSF-stimulated spontaneous electrographic seizure-like activity in medial entorhinal cortex hippocampal brain slices by measuring burst rate at 100 uM measured after 20 mins relative to control. Type of series: functional.

For series [14], the system named is Mus musculus. As to the kind of experiment: Anticonvulsant activity in albino CF1 mouse assessed as time to clonus at 196 mg/kg, ip administered 0.25 hrs prior to MTZ challenge (reference value: 29 +/- 1.6 s). Format: functional.
Series [15] concerns Mus musculus. The series can be described thus: Anticonvulsant activity in albino CF1 mouse model of metrazol-induced seizures assessed as time to twitch at 54 mg/kg, ip administered 0.25 hrs prior to MTZ challenge (reference value: 25.9 +/- 1.3 s). Type of series: functional.
Series [16] deals with Mus musculus. As to the kind of experiment: Analgesic activity in formalin-induced albino CF1 mouse model of hyperalgesia assessed as time spent in paw licking during inflammatory phase at 43 mg/kg, ip administered 0.25 hrs prior to formalin challenge measured first 2 mins of five minutes test for 10 to 40 mins by formalin test relative to control. Type of series: functional.

The test system of series [17] is Mus musculus. The series can be described thus: Anticonvulsant activity in 60-Hz corneal stimulation-induced full kindling albino CF1 mouse model of epilepsy assessed as reduction in seizure score at 60 mg/kg, ip administered 0.25 hrs prior to 60-Hz corneal stimulation. Format: functional, organism-based.
Series [18] deals with Mus musculus. As to the kind of experiment: Anticonvulsant activity in albino CF1 mouse model of metrazol-induced seizures assessed as time to twitch at 43 mg/kg, ip administered 0.25 hrs prior to MTZ challenge (reference value: 26.1 +/- 1.2 s). Type of series: functional.
Series [19] in a line: Toxicity in albino CF1 mouse assessed as body weight at 43 mg/kg, ip measured at 0.25 hrs (reference value: 26.4 +/- 0.4 g). Format: organism-based. To be noted: in vivo.
The subject of series [20] is Mus musculus. The series can be described thus: Neuroprotective activity against controlled cortical impact-induced C57Bl/6 acute mouse model of traumatic brain injury assessed as lesion volume at 43 mg/kg, ip administered twice daily for 3 days starting from 0.5 hrs post controlled cortical impact challenge measured post-last dose by naurotrace 435/455 staining-based fluorescent microscopy (reference value: 11.9 +/- 0.7 mm3). Type of series: functional.

In series [21] the test system is Mus musculus. The series can be described thus: Anticonvulsant activity in albino CF1 mouse assessed as time to clonus at 43 mg/kg, ip administered 0.25 hrs prior to MTZ challenge (reference value: 29 +/- 1.5 s). Type of series: functional.
Series [22] concerns Mus musculus. As to the kind of experiment: Analgesic activity in formalin-induced albino CF1 mouse model of hyperalgesia assessed as time spent in paw licking during acute phase at 43 mg/kg, ip administered 0.25 hrs prior to formalin challenge measured first 2 mins of five minutes test for 10 mins by formalin test relative to control. Format: functional.
Series [23] concerns Mus musculus. As to the kind of experiment: Anticonvulsant activity in albino CF1 mouse assessed as metrazol dose causing first clonus at 43 mg/kg, ip administered 0.25 hrs prior to MTZ challenge (reference value: 31.1 +/- 1.4 mg/kg). Format: functional.
Series [24] relates to Rattus norvegicus. As to the kind of experiment: Antiallodynic activity in albino Sprague-Dawley rat model of sciatic nerve ligation-induced neuropathic pain assessed as increase in paw withdrawal threshold at 50 mg/kg, po measured after 1 hr by Von Frey test relative to control. Format: functional.
For series [25], the system named is Mus musculus. As to the kind of experiment: Anticonvulsant activity in albino CF1 mouse model of metrazol-induced seizures assessed as metrazol dose causing first twitch at 43 mg/kg, ip administered 0.25 hrs prior to MTZ challenge (reference value: 27.9 +/- 1.2 mg/kg). Type of series: functional.
For series [26], the system named is Mus musculus. The series can be described thus: Anticonvulsant activity in 60-Hz corneal stimulation-induced full kindling albino CF1 mouse model of epilepsy assessed as reduction in seizure score at 20 mg/kg, ip administered 0.25 hrs prior to 60-Hz corneal stimulation. Format: functional, organism-based.
The subject of series [27] is Mus musculus. As to the kind of experiment: Anticonvulsant activity in albino CF1 mouse model of metrazol-induced seizures assessed as time to twitch at 150 mg/kg, ip administered 0.25 hrs prior to MTZ challenge (reference value: 26.1 +/- 1.2 s). Type of series: functional.
For series [28], the system named is Mus musculus. As to the kind of experiment: Anticonvulsant activity in albino CF1 mouse assessed as metrazol dose causing first clonus at 150 mg/kg, ip administered 0.25 hrs prior to MTZ challenge (reference value: 31.1 +/- 1.4 mg/kg). Type of series: functional.
For series [29], the system named is Mus musculus. As to the kind of experiment: Anticonvulsant activity in albino CF1 mouse assessed as time to clonus at 150 mg/kg, ip administered 0.25 hrs prior to MTZ challenge (reference value: 29 +/- 1.5 s). Type of series: functional.
The subject of series [30] is Mus musculus. As to the kind of experiment: Anticonvulsant activity in 60-Hz corneal stimulation-induced full kindling albino CF1 mouse model of epilepsy assessed as reduction in seizure score at 86 mg/kg, ip administered 0.25 hrs prior to 60-Hz corneal stimulation. Format: functional, organism-based.
In series [31] the test system is Rattus norvegicus. The series can be described thus: Antiallodynic activity in albino Sprague-Dawley rat model of sciatic nerve ligation-induced neuropathic pain assessed as increase in paw withdrawal threshold at 50 mg/kg, po measured after 2 hrs by Von Frey test relative to control. Format: functional.
Series [32] in a line: Toxicity in albino CF1 mouse assessed as body weight at 150 mg/kg, ip measured at 0.25 hrs (reference value: 26.4 +/- 0.4 g). Type of series: organism-based. To be noted: in vivo.
The subject of series [33] is Rattus norvegicus. The series can be described thus: Antiallodynic activity in albino Sprague-Dawley rat model of sciatic nerve ligation-induced neuropathic pain assessed as time required to show maximum increase in paw withdrawal threshold at 50 mg/kg, po Von Frey test. Type of series: functional.
Series [34] relates to Rattus norvegicus. The series can be described thus: Antiallodynic activity in albino Sprague-Dawley rat model of sciatic nerve ligation-induced neuropathic pain assessed as increase in paw withdrawal threshold at 50 mg/kg, po measured after 4 hrs by Von Frey test relative to control. Format: functional.
Series [35] has as its system Mus musculus. The series can be described thus: Anticonvulsant activity in albino CF1 mouse model of metrazol-induced seizures assessed as metrazol dose causing first twitch at 150 mg/kg, ip administered 0.25 hrs prior to MTZ challenge (reference value: 27.9 +/- 1.2 mg/kg). Type of series: functional.
Series [36] relates to Rattus norvegicus. As to the kind of experiment: Antiallodynic activity in albino Sprague-Dawley rat model of sciatic nerve ligation-induced neuropathic pain assessed as increase in paw withdrawal threshold at 50 mg/kg, po measured after 6 hrs by Von Frey test relative to control. Format: functional.

Calls of active or inactive are those of the source.

For two molecules, Time, Activity and ED50 results are on record in ChEMBL document CHEMBL4387714, “Four N-(E)-cinnamoyl (cinnamamide) derivatives of aminoalkanols with promising anticonvulsant and analgesic activity” (Bioorg Med Chem Lett, 2019).

On to `CCC(CO)NC(=O)/C=C/c1ccc(Cl)cc1` (racemic), for which the Time amounted to 63 s in the series on Mus musculus [1], 42.1 s with Mus musculus [5], 90.2 s in the series on Mus musculus [14] and 33.9 s in the series on Mus musculus [15]. In addition, the Activity was found to be 98.6 mg/kg in the series with Mus musculus [2]; 44.9 mg/kg with Mus musculus [3]; 36.2 mg/kg in the series with Mus musculus [4]; 26 g in series [6]; 26.5 g in [7]; 68.7 mg/kg in the series on Mus musculus [9]. Further, the Activity is recorded as 90% in the series with Brain [10], 11.44 mm3 in the series on Mus musculus [11] and 87% with Brain [13]. The median effective dose (ED50) in the series on Mus musculus [8] was 25.7 mg/kg. The outcome with Mus musculus [12] was Active.
In the case of `Cc1ccccc1/C=C/C(=O)N[C@@H](C)CO`, the Activity in the series on Mus musculus [16] is 84.29%; in series [19], 25.6 g; in the series with Mus musculus [20], 11.09 mm3; in the series with Brain [10], 82%; in the series with Mus musculus [22], 34.23%; in the series on Mus musculus [23] it was 74.6 mg/kg. Also, the Activity came out at 233% in the series with Rattus norvegicus [24]; 53.4 mg/kg in the series on Mus musculus [25]; 96.3 mg/kg in the series on Mus musculus [28]; 106% in the series with Brain [13]; 254% in the series with Rattus norvegicus [31]; 26.5 g in series [32]. Further, the figures for the Activity in the series on Rattus norvegicus [34], in the series on Mus musculus [35] and in the series on Rattus norvegicus [36] were 249%, 93.5 mg/kg and 237%, respectively. Further, the outcome in the series on Mus musculus [17] and with Mus musculus [30] was Active. Moreover, the ED50 in the series with Mus musculus [8] turned out to be 36.8 mg/kg. Besides, the Time stood at 48.2 s with Mus musculus [18]; 67.2 s with Mus musculus [21]; 87.3 s in the series on Mus musculus [27]; 90 s in the series on Mus musculus [29]; 2 h in the series on Rattus norvegicus [33]. Moreover, in the series on Mus musculus [26], the result was inactive.
